Measured values published in patent US11564913B2, “Compositions and methods for treating cancer” (Children's Hospital Medical Center, priority 2019, dated 2023).

Experiments:
[1] = system: Vav3−/− cells expressing p190-BCR-ABL; test: Cell cycle analysis; assay type: cell-based, murine; settings: 3 μM, 20 h
Procedure: FIG. 14: IODVA1 targets Vav3 in vitro and in vivo. (A) Ba/F3 cells expressing empty vector Mieg3 or p190-BCR-ABL1 were treated with vehicle control or IODVA1 (IO1, 3 μM) for 30 min and incubated with GST-Rac and glutathione beads. Beads were washed and the protein complexes were separated on SDS-PAGE and immunoblotted for pVav3. Input Vav3 was used as control. (B) Binding affinity (Kd) between IODVA1 and Vav3 (green), LARG (brown), and RacGDP (blue). […] Error bars=SD; N=3. (C) Quantification of the average number of colonies made by bone marrow wild-type (black) and Vav3^−/− (lilac) p190-BCR-ABL1 leukemic cells treated with vehicle control or IODVA1 (IO1, 1 and 3 μM) (* p≤0.05; ** p≤0.01; *** p≤0.001; ns, not significant). (D) Representative histogram data of the cell cycle analysis of wild-type (black and grey bars) and Vav3^−/− (dark and light lilac) bone marrow cells expressing p190-BCR-ABL and treated with vehicle control or IODVA1 (IO1, 3 μM) for 20 h. (E) Quantification by densitometry of the pVav3 band from FIG. 14A. […]
Cell cycle was analyzed by using in vitro incorporation of 5-Bromo-2-deoxyuridine using Brdu Flow kit (BD Pharmingen, Cat #552598). […] DNAse treatment was done according to the instructions and stained with anti BrdU and apoptosis was analyzed by 7-AAD staining through flow cytometry analysis.

[2] = system: pVav3 in MDA-MB-231 xenograft tumors; test: Immunohistochemistry of pVav3 in xenograft tumors; parameters: species or system mice; settings: mouse, in vivo
Procedure: FIG. 16: IODVA1 decreases levels of pVav3 in in vitro and in vivo models of triple negative breast cancer. (A) Immunoblot and quantification of Vav3 protein in lysates of MDA-MB-231 triple negative breast cancer cells stably expressing scrambled or Vav3-targeting shRNAs. Viability of the MDA-MB-231 cells stably expressing shVav3 in the presence of IODVA1 (0-1 μM). Cells were grown in the presence of IODVA1 and counted by trypan blue exclusion at the indicated time points. (B) MDA-MB-231 cells were incubated with IODVA1 (3 μM) for 15 min and the levels of phosphorylated Vav3 (pY173) were assessed by immunoblotting. (C) Immunohistochemical staining of phosphorylated Vav3 in tissue derived from MDA-MB-231 xenografts treated with vehicle control or IODVA1.
To test if IODVA1 inhibits Vav3 in vivo, we took advantage of the MDA-MB-231 xenograft tumors we generated (FIG. 8A) and stained them by immunohistochemistry for pVav3.
Embedded tissues were cut into 4 μm sections then immunohistochemically stained using the Mouse on Mouse kit (MoM kit, Vector Laboratories). Tissue sections were subjected to sodium citrate antigen retrieval, pretreated with 0.3% hydrogen peroxide, blocked according to kit directions, and incubated with an antibody to phosphorylated Vav3 (1:200 dilution, Abcam) and HRP-conjugated anti-rabbit secondary (Vector Laboratories). […]

`OC1(c2ccccn2)N=C(Nc2nc3ccccc3[nH]2)N=C1c1ccccn1` (centres unmarked) [IODVA1, (Z)-2-((1H-benzo[d]imidazol-2-yl)imino)-4,5-di(pyridin-2-yl)-2,5-dihydro-1H-imidazol-5-ol] was tested, and the cell cycle [1] was “not affected” and the “pVav3 staining of tumor sections versus vehicle control” value [2] was “significant decrease”.
